The values that follow come from ChEMBL document CHEMBL4619752, “Optimization and biological evaluation of thiazole-bis-amide inverse agonists of RORγt” (Bioorg Med Chem Lett, 2020).

By half-life is commonly meant the time in which the quantity being followed falls by half. Low values mean rapid decline, high ones slow decline. Broadly, the solubility is the concentration that dissolves in the medium under given conditions. A lower solubility goes with little dissolved substance. Usually AUC stands for concentration integrated over time. A lower AUC goes with less exposure. As usually defined, the Cmax is the peak of the concentration-time curve.

The nature of data set [1]: in vitro. The note with it: human, microsomes.
Data set [2] in a line: in vitro. The note with it: rat, microsomes.
Data set [3] in a line: physchem. The note with it: buffer, pH 7.
Data set [4] is described as follows: physchem. The note with it: buffer, pH 2.
Data set [5] in a line: in vivo. Particulars: rat, po, 50 mg/kg.
Data set [6] in a line: in vivo. The note with it: rat, po, 200 mg/kg.
Data set [7] can be described thus: in vivo. Particulars: rat, po, 200 mg/kg. The source holds these as a separate data set.
A short description of data set [8]: in vivo. Particulars: rat, po, 200 mg/kg. The source holds these as a separate data set.
The nature of data set [9]: in vivo. Particulars: rat, po, 200 mg/kg. This is another data set of the same source.
A short description of data set [10]: in vivo. Particulars: rat, po, 50 mg/kg. This is another data set of the same source.
The nature of data set [11]: in vivo. Particulars: rat, po, 50 mg/kg. This is another data set of the same source.
Data set [12] in a line: in vivo. Particulars: rat, po, 50 mg/kg. The source holds these as a separate data set.
A short description of data set [13]: in vivo. The note with it: rat, po, 200 mg/kg. The source holds these as a separate data set.
Data set [14] can be described thus: in vivo. The note with it: rat, po, 200 mg/kg. The source holds these as a separate data set.
Data set [15] in a line: in vivo. The note with it: rat, po, 50 mg/kg. The source holds these as a separate data set.
Data set [16] can be described thus: in vivo. Particulars: rat, po, 50 mg/kg. This is another data set of the same source.

≈ marks a conversion by molar mass, not a printed value.

Take `CC(C)(O)CNC(=O)c1nc(CC2CCCCC2)c(-c2ccc(S(=O)(=O)NC(C)(C)C)c3ccccc23)s1`: the results for the half-life in the data set “in vitro [1]” and in “in vitro [2]” were 1.25 h and 0.783 h, respectively. In “physchem [3]”, this compound yielded a solubility below 1 µM.

With `C[C@H](NS(=O)(=O)c1ccc(-c2sc(C(=O)NCC(C)(C)O)nc2C(=O)N2CC[C@H](F)C[C@@H]2C)c(Cl)c1Cl)C(F)(F)F`, the half-life is above 3 h in “in vitro [1]” and 1.13 h in the data set “in vitro [2]”. Moreover, the values for the solubility in the data set “physchem [4]” and in the data set “physchem [3]” were 40 µM (≈ 26.5 µg/mL) and 54 µM (≈ 35.8 µg/mL), respectively.

As to `C[C@H](NS(=O)(=O)c1ccc(-c2sc(C(=O)NCC(C)(C)O)nc2C(=O)N2CCCC[C@@H]2C)c(Cl)c1Cl)C(F)(F)F`, the half-life was above 3 h in “in vitro [1]” and 0.817 h in the data set “in vitro [2]”. The solubility was determined as 19 µM (≈ 12.3 µg/mL) in the data set “physchem [4]” and 21 µM (≈ 13.6 µg/mL) in the data set “physchem [3]”.

Consider `CC(C)(O)CNC(=O)c1nc(C(=O)N2CCCCC2)c(-c2ccc(S(=O)(=O)NC(C)(C)C)c3ccccc23)s1`, for which the half-life was found to be 1.35 h in the data set “in vitro [1]” and 0.2 h in “in vitro [2]”. Besides, the solubility in the data set “physchem [3]” is 1.1 µM (≈ 0.63 µg/mL).

Take `CC[C@H](NS(=O)(=O)c1ccc(-c2sc(C(=O)NCC(C)(C)O)nc2C(=O)N(CC)CC)c(Cl)c1Cl)C(F)(F)F`: the half-life in the data set “in vitro [1]” and in “in vitro [2]” was above 3 h throughout. Further, the figures for the solubility in “physchem [4]” and in the data set “physchem [3]” were 32 µM (≈ 20.3 µg/mL) and 44 µM (≈ 27.9 µg/mL), respectively.

In the case of `C[C@H](NS(=O)(=O)c1ccc(-c2sc(C(=O)NCC(C)(C)O)nc2C(=O)N2CC[C@@H](F)C[C@@H]2C)c(Cl)c1Cl)C(F)(F)F`, the solubility in the data set “physchem [4]” stood at 41 µM (≈ 27.2 µg/mL); in the data set “physchem [3]”, 47 µM (≈ 31.2 µg/mL).

Take `C[C@H](NS(=O)(=O)c1ccc(-c2sc(C(=O)NCC(C)(C)O)nc2C(=O)N2CCC(F)CC2)c(Cl)c1Cl)C(F)(F)F`: the AUC in “in vivo [5]” turned out to be 1110 ng·h/mL; in the data set “in vivo [6]” it was 282000 ng·h/mL; in the data set “in vivo [7]” it was 5020 ng·h/mL; in the data set “in vivo [11]” it was 31500 ng·h/mL; in the data set “in vivo [13]”, 6000 ng·h/mL; in “in vivo [15]”, 870 ng·h/mL. For the same compound, the Cmax at 14 day in the data set “in vivo [8]” stood at 1280 ng/mL; in “in vivo [12]”, 417 ng/mL. Moreover, the Cmax in the data set “in vivo [9]” was determined as 49400 ng/mL; in the data set “in vivo [10]”, 11200 ng/mL. Besides, the half-life in “in vitro [1]” and in “in vitro [2]” was above 3 h throughout. For the same compound, the highest concentration (Cmax) at 4 day in the data set “in vivo [14]” came out at 1900 ng/mL; in “in vivo [16]” it was 252 ng/mL. The solubility in the data set “physchem [4]” was found to be 114 µM (≈ 74 µg/mL); in the data set “physchem [3]”, 116 µM (≈ 75.3 µg/mL).

Regarding `C[C@H](NS(=O)(=O)c1ccc(-c2sc(C(=O)NCC(C)(C)O)nc2C(=O)N2CC3CC3C2)c(Cl)c1Cl)C(F)(F)F` (some centres undefined), the solubility in the data set “physchem [4]” was 7 µM (≈ 4.41 µg/mL); in the data set “physchem [3]” it was 8.7 µM (≈ 5.48 µg/mL).

For `C[C@H](NS(=O)(=O)c1ccc(-c2sc(NC(=O)CC(C)(C)O)nc2C(=O)N2CCC(F)CC2)c(Cl)c1Cl)C(F)(F)F`, the figures for the half-life in “in vitro [1]” and in “in vitro [2]” were above 3 h and 2.45 h, respectively. In addition, the solubility in “physchem [4]” was determined as 16 µM (≈ 10.4 µg/mL); in the data set “physchem [3]” it was 15 µM (≈ 9.74 µg/mL).

Regarding `C[C@H](NS(=O)(=O)c1ccc(-c2sc(C(=O)NCC(C)(C)O)nc2C(=O)N2CCC[C@@H]2CF)c(Cl)c1Cl)C(F)(F)F`, the solubility in “physchem [4]” is below 4 µM; in “physchem [3]” it was 4 µM (≈ 2.6 µg/mL).
